{"source": "patent US10287337B2", "about": "(priority 2015, dated 2019)", "key": {"[1]": {"molecular_target": "T1, human calcitonin CGRP1 (CGRP1) membrane (Homo sapiens, UniProt O60894+Q16602)", "T1 construct": "purchased Perkin Elmer (Waltham, Mass.)", "T1 sequence (O60894 27-148)": "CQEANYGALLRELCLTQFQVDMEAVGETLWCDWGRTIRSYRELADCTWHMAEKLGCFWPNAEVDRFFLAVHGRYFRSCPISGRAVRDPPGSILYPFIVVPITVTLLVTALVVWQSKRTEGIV", "T1 sequence (Q16602 23-461)": "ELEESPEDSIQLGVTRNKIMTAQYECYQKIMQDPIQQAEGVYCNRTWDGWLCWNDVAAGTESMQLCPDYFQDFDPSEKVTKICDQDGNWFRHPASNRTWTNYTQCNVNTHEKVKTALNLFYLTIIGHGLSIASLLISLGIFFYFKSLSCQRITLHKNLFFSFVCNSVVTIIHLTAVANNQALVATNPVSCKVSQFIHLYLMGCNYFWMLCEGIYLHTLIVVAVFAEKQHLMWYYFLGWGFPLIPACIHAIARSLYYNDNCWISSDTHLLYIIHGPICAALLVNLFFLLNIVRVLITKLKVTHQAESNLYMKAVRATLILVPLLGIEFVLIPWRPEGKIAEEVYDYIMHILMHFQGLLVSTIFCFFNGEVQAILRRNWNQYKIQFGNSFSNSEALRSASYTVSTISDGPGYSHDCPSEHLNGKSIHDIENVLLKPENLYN", "type": "binding", "details": "for binding affinity on CGRP receptors (in words): comparison between peptides", "description": "CGRP1 membrane was homogenized in the assay buffer (50 mM Tris-HCl pH 7.4, 5 mM MgCl2, 0.5% BSA, 0.05% Tween20). […] After 1 h of incubation, at room temperature, samples were filtered, using a Tomtec cell harvester, through glass fiber filters that had been presoaked in 0.05% polyethyleneimine and washed with the cold Tris buffer (50 mM Tris-HCl pH7.4). Filters were counted on a betaplate reader (Wallac)."}, "[2]": {"system": "UVB radiation-induced inflammatory pain in rat cheek", "type": "in vivo", "details": "topical application 10 μM, 100 μL", "source_text": "Ultraviolet B (UVB) radiation causes cutaneous inflammation in humans and animals. One important clinical consequence of UVB-induced inflammation is causing hyperalgesia. Changes in thermal sensitivities in the area of primary UVB irradiation are well documented both in humans and in the animal models (Zhang et al., 2009). […] This model provides an experimental model of post radiation pain and can mimic one type of burn pain. To determine the magnitude of anti-inflammatory pain effects for a given drug transdermally delivered by way of microneedle delivery, the depilated rat's cheeks were exposed to an inflammatory dosage of Ultraviolet B radiation (Zhang et al., 2009).\nWith the skin of a rat's cheek was stretched, the circular (8 mm in diameter) fiberglass applicator of the UV Curing Device (Dymax Bluewave 200) was applied to the center of the rat's cheek. To produce an appropriate inflammation, a total dose of 1200 mJ/cm^2 UVB was administered to one rat cheek for 25 seconds. The same procedure was performed on the rat's contralateral cheek. Upon completion of UVB irradiation, all rats were returned to their home cages and were assessed for thermal pain between 24-48 hours later. […] The rats were lightly anesthetized with urethane (800 mg/kg, IP) and heat-induced withdrawal latencies of the cheeks (an indicator of C fiber stimulation responses) were measured. […] A sham control group (n=6) were only completely depilated and cleansed with ethanol wipes but without UVB challenge.\nAfter removing patches, cheek withdrawal latencies induced by continuous and noxious heat were assessed at different time points from the end of the 20 minute treatment period up to 3 hours post treatment.\nThe patches were applied on the rat cheek for 20 minutes. After removing the patches, cheek withdrawal latencies induced by continuous and noxious heat were assessed at different time points up to 3 hours as described above.\n(§1) After removing the patches, cheek withdrawal latencies induced by continuous and noxious heat were assessed at different time points up to 3 hours.\nAccordingly, anti-inflammatory effects were examined 48 hours post-UVB and after the application of the patch. Twelve rats were subjected to UVB radiation (1200 mJ/cm^2). […] The patch was placed over the inflamed area for a period of 20 minutes. […] Sham control group rats (n=6) were completely depilated and cleansed with ethanol wipes but without any other treatment. The rats were returned to their home cages, and assessed for thermal pain responses 48 hours later. As usual, cheek withdrawal latencies in response to continuous and noxious heat were recorded over a 3-hour time period (hours 49-51 post-UVB).\nas §1\nAfter removing the patches, cheek withdrawal latencies induced by continuous and noxious heat were assessed at different time points from 20 minutes post administration up to 3 hours.\nBecause UVB-irradiation may increase skin permeability, a topical formulation, but not limited to the sample shown here, was made."}, "[3]": {"system": "UVB radiation-induced inflammatory pain in rat cheek", "type": "in vivo", "details": "topical application 10 μM, 100 μL, 2% propylene glycol, UVB-irradiated cheek"}}, "note": "Like-named read-outs stand apart in the source and are kept apart here.", "data": [{"substance": "H-NFVPTNVGPFAF-NH2 [AFA-peptide 3, NH2-N-F-V-P-T-N-V-G-P-F-A-F-CONH2]", "values": [{"measurement": "Hill slope", "setting": "[1]; 0.24 nM [125I]-CGRP, Mean±SD", "result": "1.20 ± 0.02"}, {"measurement": "binding affinity on CGRP receptors (in words)", "setting": "[1]", "result": "higher affinities than conventional CGRP 27-37 and CGRP 8-37"}, {"measurement": "binding affinity on CGRP receptors (in words)", "setting": "[1]; listed as Peptide-3", "result": "most potent in binding assay"}, {"measurement": "duration of action", "setting": "[2]", "result": 2, "unit": "h"}, {"measurement": "C-fiber-mediated thermal pain thresholds vs vehicle (in words)", "setting": "[2]; 2% propylene glycol, UVB-irradiated cheek", "result": "significant and substantial increase"}, {"measurement": "A-delta-fiber-mediated responses (in words)", "setting": "[3]", "result": "little effects"}]}]}
